From patent US20210045385A1, “PYRIDAZINONE-SUBSTITUTED KETOXIMES AS HERBICIDES” (FMC Corporation, priority 2018, published 2021)

Experiments:
Assay type in all cases: in vivo
[1] = system: Italian ryegrass (Lolium mutiflorum); assay: Test C preemergence, visual plant response rating; conditions: Test C, 0 is no effect, 100 is complete control
Outline: (§1)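 Visual injury on a 0 (no effect) to 100 (complete control) scale versus untreated controls, scored approximately 10 d after treatment under greenhouse conditions. Treatments used surfactant-containing non-phytotoxic solvent formulations, sprayed onto loam–sand soil preemergence or onto one- to two-leaf plants 2–10 cm tall postemergence.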

[2] = system: barnyardgrass (Echinochloa crus-galli); assay: Test C preemergence, visual plant response rating; conditions: Test C, 0 is no effect, 100 is complete control
Outline: as §1

[3] = system: foxtail, giant (giant foxtail, Setaria faberi); assay: Test C preemergence, visual plant response rating; conditions: Test C, 0 is no effect, 100 is complete control
Outline: as §1

kochia (Bassia scoparia) [4] = assay: Test C preemergence, visual plant response rating; conditions: Test C, 0 is no effect, 100 is complete control
Outline: as §1

[5] = system: pigweed (Amaranthus retroflexus); assay: Test C preemergence, visual plant response rating; conditions: Test C, 0 is no effect, 100 is complete control
Outline: as §1

[6] = system: ragweed (common ragweed, Ambrosia artemisiifolia); assay: Test C preemergence, visual plant response rating; conditions: Test C, 0 is no effect, 100 is complete control
Outline: as §1

[7] = system: Italian ryegrass (Lolium mutiflorum); assay: Test C postemergence, visual plant response rating
Outline: as §1

[8] = system: barnyardgrass (Echinochloa crus-galli); assay: Test C postemergence, visual plant response rating
Outline: as §1

[9] = system: blackgrass (Alopecurus myosuroides); assay: Test C postemergence, visual plant response rating
Outline: as §1

corn (Zea mays) = assay: Test C postemergence, visual plant response rating
Outline: as §1

[10] = system: foxtail, giant (giant foxtail, Setaria faberi); assay: Test C postemergence, visual plant response rating
Outline: as §1

[11] = system: galium (catchweed bedstraw, Galium aparine); assay: Test C postemergence, visual plant response rating
Outline: as §1

kochia (Bassia scoparia) [12] = assay: Test C postemergence, visual plant response rating
Outline: as §1

[13] = system: pigweed (Amaranthus retroflexus); assay: Test C postemergence, visual plant response rating
Outline: as §1

[14] = system: ragweed (common ragweed, Ambrosia artemisiifolia); assay: Test C postemergence, visual plant response rating
Outline: as §1

[15] = system: wheat (Triticum aestivum); assay: Test C postemergence, visual plant response rating
Outline: as §1

[16] = system: barnyardgrass (Echinochloa crus-galli); assay: Test D flooded paddy test, visual plant response rating; conditions: 250 g ai/ha, scale 0 to 100 (0 no effect, 100 complete control), 13 to 15 d
Outline: (§2)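 Rating is visual, on a 0 (no effect) to 100 (complete control) scale versus controls, taken 13 to 15 d after treatment in a greenhouse. Treatment went into paddy water kept 3 cm above the soil surface, with plants at the 2-leaf stage.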

[17] = system: duck salad (Heteranthera limosa); assay: as above; conditions: 250 g ai/ha, scale 0 to 100 (0 no effect, 100 complete control), 13 to 15 d
Outline: as §2

rice (Oryza sativa) = assay: as above; conditions: 250 g ai/ha, scale 0 to 100 (0 no effect, 100 complete control), 13 to 15 d
Outline: as §2

[18] = system: sedge umbrella (small-flower umbrella sedge, Cyperus difformis); assay: as above; conditions: 250 g ai/ha, scale 0 to 100 (0 no effect, 100 complete control), 13 to 15 d
Outline: as §2

[19] = Test C, postemergence, 125 g ai/ha

CO/N=C(\c1ccc(Cl)c(Cl)c1)c1c(O)c(C)nn(C)c1=O [Compound 217]
Ryegrass, Italian plant response rating (0 to 100 scale) ([1]; 31 g ai/ha): 0 | Ryegrass, Italian plant response rating (0 to 100 scale) ([1]; 125 g ai/ha): 0 | Barnyardgrass plant response rating (0 to 100 scale) ([2]; 31 g ai/ha): 0 | Barnyardgrass plant response rating (0 to 100 scale) ([2]; 125 g ai/ha): 0 | Foxtail, Giant plant response rating (0 to 100 scale) ([3]; 31 g ai/ha): 0 | Foxtail, Giant plant response rating (0 to 100 scale) ([3]; 125 g ai/ha): 0 | Kochia plant response rating (0 to 100 scale) (kochia (Bassia scoparia) [4]; 31 g ai/ha): 0 | Kochia plant response rating (0 to 100 scale) (kochia (Bassia scoparia) [4]; 125 g ai/ha): 20 | Pigweed plant response rating (0 to 100 scale) ([5]; 31 g ai/ha): 0 | Pigweed plant response rating (0 to 100 scale) ([5]; 125 g ai/ha): 0 | Ragweed plant response rating (0 to 100 scale) ([6]; 31 g ai/ha): 0 | Ragweed plant response rating (0 to 100 scale) ([6]; 125 g ai/ha): 0 | Ryegrass, Italian plant response rating (0 to 100 scale) ([7]; Postemergence, 31 g ai/ha): 0 | Ryegrass, Italian plant response rating (0 to 100 scale) [7, 19]: 0 | Barnyardgrass plant response rating (0 to 100 scale) ([8]; Postemergence, 31 g ai/ha): 0 | Barnyardgrass plant response rating (0 to 100 scale) [8, 19]: 20 | Blackgrass plant response rating (0 to 100 scale) ([9]; Postemergence, 31 g ai/ha): 0 | Blackgrass plant response rating (0 to 100 scale) [9, 19]: 0 | Corn plant response rating (0 to 100 scale) (corn (Zea mays); Postemergence, 31 g ai/ha): 0 | Corn plant response rating (0 to 100 scale) (corn (Zea mays); [19]): 0 | Foxtail, Giant plant response rating (0 to 100 scale) ([10]; Postemergence, 31 g ai/ha): 0 | Foxtail, Giant plant response rating (0 to 100 scale) [10, 19]: 0 | Galium plant response rating (0 to 100 scale) ([11]; Postemergence, 31 g ai/ha): 40 | Galium plant response rating (0 to 100 scale) [11, 19]: 80 | Kochia plant response rating (0 to 100 scale) (kochia (Bassia scoparia) [12]; Postemergence, 31 g ai/ha): 30 | Kochia plant response rating (0 to 100 scale) (kochia (Bassia scoparia) [12]; [19]): 60 | Pigweed plant response rating (0 to 100 scale) ([13]; Postemergence, 31 g ai/ha): 10 | Pigweed plant response rating (0 to 100 scale) [13, 19]: 20 | Ragweed plant response rating (0 to 100 scale) ([14]; Postemergence, 31 g ai/ha): 0 | Ragweed plant response rating (0 to 100 scale) [14, 19]: 20 | Wheat plant response rating (0 to 100 scale) ([15]; Postemergence, 31 g ai/ha): 0 | Wheat plant response rating (0 to 100 scale) [15, 19]: 0 | Plant response rating, Barnyardgrass (Flood) [16]: 0 | Plant response rating, Ducksalad (Flood) [17]: 0 | Plant response rating, Rice (Flood) (rice (Oryza sativa)): 0 | Plant response rating, Sedge, Umbrella (Flood) [18]: 0

CO/N=C(/c1ccc(F)c(Cl)c1)c1c(O)c(C)nn(C)c1=O [Compound 218]
Ryegrass, Italian plant response rating (0 to 100 scale) ([1]; 31 g ai/ha): 0 | Ryegrass, Italian plant response rating (0 to 100 scale) ([1]; 125 g ai/ha): 10 | Barnyardgrass plant response rating (0 to 100 scale) ([2]; 31 g ai/ha): 0 | Barnyardgrass plant response rating (0 to 100 scale) ([2]; 125 g ai/ha): 0 | Foxtail, Giant plant response rating (0 to 100 scale) ([3]; 31 g ai/ha): 0 | Foxtail, Giant plant response rating (0 to 100 scale) ([3]; 125 g ai/ha): 0 | Kochia plant response rating (0 to 100 scale) (kochia (Bassia scoparia) [4]; 31 g ai/ha): 0 | Kochia plant response rating (0 to 100 scale) (kochia (Bassia scoparia) [4]; 125 g ai/ha): 0 | Pigweed plant response rating (0 to 100 scale) ([5]; 31 g ai/ha): 0 | Pigweed plant response rating (0 to 100 scale) ([5]; 125 g ai/ha): 0 | Ragweed plant response rating (0 to 100 scale) ([6]; 31 g ai/ha): 0 | Ragweed plant response rating (0 to 100 scale) ([6]; 125 g ai/ha): 0 | Ryegrass, Italian plant response rating (0 to 100 scale) ([7]; Postemergence, 31 g ai/ha): 40 | Ryegrass, Italian plant response rating (0 to 100 scale) [7, 19]: 60 | Barnyardgrass plant response rating (0 to 100 scale) ([8]; Postemergence, 31 g ai/ha): 0 | Barnyardgrass plant response rating (0 to 100 scale) [8, 19]: 10 | Blackgrass plant response rating (0 to 100 scale) ([9]; Postemergence, 31 g ai/ha): 0 | Blackgrass plant response rating (0 to 100 scale) [9, 19]: 0 | Corn plant response rating (0 to 100 scale) (corn (Zea mays); Postemergence, 31 g ai/ha): 0 | Corn plant response rating (0 to 100 scale) (corn (Zea mays); [19]): 0 | Foxtail, Giant plant response rating (0 to 100 scale) ([10]; Postemergence, 31 g ai/ha): 0 | Foxtail, Giant plant response rating (0 to 100 scale) [10, 19]: 0 | Galium plant response rating (0 to 100 scale) ([11]; Postemergence, 31 g ai/ha): 50 | Galium plant response rating (0 to 100 scale) [11, 19]: 80 | Kochia plant response rating (0 to 100 scale) (kochia (Bassia scoparia) [12]; Postemergence, 31 g ai/ha): 10 | Kochia plant response rating (0 to 100 scale) (kochia (Bassia scoparia) [12]; [19]): 30 | Pigweed plant response rating (0 to 100 scale) ([13]; Postemergence, 31 g ai/ha): 20 | Pigweed plant response rating (0 to 100 scale) [13, 19]: 60 | Ragweed plant response rating (0 to 100 scale) ([14]; Postemergence, 31 g ai/ha): 0 | Ragweed plant response rating (0 to 100 scale) [14, 19]: 10 | Wheat plant response rating (0 to 100 scale) ([15]; Postemergence, 31 g ai/ha): 0 | Wheat plant response rating (0 to 100 scale) [15, 19]: 0 | Plant response rating, Barnyardgrass (Flood) [16]: 0 | Plant response rating, Ducksalad (Flood) [17]: 0 | Plant response rating, Rice (Flood) (rice (Oryza sativa)): 0 | Plant response rating, Sedge, Umbrella (Flood) [18]: 0
